According to patent US11013710B2, “Synergistic compositions of bioactive agents for optimizing cellular health” (CELAGENEX RESEARCH (INDIA) PVT. LTD., priority 2018, dated 2021):

What was measured:
HepG2 cells = assay: DNA fragmentation (DNA ladder assay) in HepG2 cells; assay type: cell-based, Human
Description: FIG. 3 depicts DNA ladder assay of test substances on HepG2 cell line; L=100 bp Ladder, Lane 1=AAPH (1 mM), Lane 2=cell control, Lane 3=G3 (250 μg/ml), Lane 4=G4(250 μg/ml), Lane 5=G5 (5:125-250 μg/ml), Lane 6=G3+AAPH, Lane 7=G4+AAPH, Lane 8=G5+AAPH
HepG2 cells (3×10^6/ml) were seeded into 60 mm petri dishes and incubated at 37° C. with 5% CO2 atmosphere for 24 h. The cells were washed with medium and were treated with extract, standard substance and incubated at 37° C., 5% CO2 for 24 hrs. At the incubation time ended, the chromosomal DNA of cancer cells was prepared with G Biosciences, USA apoptotic DNA ladder kit. Total genomic DNA was extracted and resolved on a 1% agarose gel. Apoptotic DNA fragmentation was visualized by ethidium bromide staining under UV transilluminator and photographed. (FIG. 3)

[1] = system: carrageenan induced rat paw edema; assay: Carrageenan induced rat paw edema model (acute anti-inflammatory activity); assay type: in vivo; conditions: for % inhibition of paw edema at 6th hr.: pretreated 1 hr before, L-EGT 0.512 mg/kg, NMN chloride 12.33 mg/kg, combination 0.512+12.33 mg/kg bw, vs positive control; for paw edema compared with Positive control group (G2): result in words
Description: In study thirty (30) rats, were divided into total […] groups. […] G3-G4 groups are referred as test substances. Acute anti inflammatory activity was measured using carrageenan induced rat paw edema model. Acute inflammation was induced by the sub planter administration of 0.1 ml of 1% carrageenan (0.9% NaCl solution) in the right hind paw of the rats. Group 1 was treated with normal saline. Group 2 positive control was treated with normal saline (with paw edema induction). Group 3, Group 4 and Group 5 were treated with test substance (G1—0.512 mg/kg, G2—12.33 mg/kg and G3-0.512 mg/kg+12.33 mg/kg bw) respectively. Excluding control group, all groups were pretreated 1 hr before eliciting paw edema. […] The perimeter of paw was measured by using vernier calipers. After the completions of the paw volume measurement animals were anesthetized and blood was collected for biochemical parameter analysis. The anti-inflammatory activity was calculated by following formula % inhibition of edema=((T−T0)/T)×100 T: Thickness of paw in positive control group T0: Thickness of paw edema in the test compound treated groups. The values were expressed in Mean±SEM. The significance of in vivo data was analyzed by One way anova followed by Dunnet test. P<0.05 was considered as statistically significant

IL-6 = assay: Serum IL-6 levels in carrageenan paw edema rats; assay type: in vivo, Rat; conditions: for IL-6: rat serum after paw volume measurement, Mean±SEM; for Serum interleukin-6 compared with positive control (G2) / Percentage inhibition over control (serum IL-6): rat serum; for Serum interleukin-6 compared with positive control (G2): result in words; for Percentage inhibition over control (serum IL-6): vs positive control
Description: (§1) Acute anti inflammatory activity was measured using carrageenan induced rat paw edema model. Acute inflammation was induced by the sub planter administration of 0.1 ml of 1% carrageenan (0.9% NaCl solution) in the right hind paw of the rats. Group 1 was treated with normal saline. Group 2 positive control was treated with normal saline (with paw edema induction). Group 3, Group 4 and Group 5 were treated with test substance (G1—0.512 mg/kg, G2—12.33 mg/kg and G3-0.512 mg/kg+12.33 mg/kg bw) respectively. Excluding control group, all groups were pretreated 1 hr before eliciting paw edema. The linear paw circumference was measured at Time intervals: 0, 30, 60, 120, 180 and 240 mins. The perimeter of paw was measured by using vernier calipers. After the completions of the paw volume measurement animals were anesthetized and blood was collected for biochemical parameter analysis. The values were expressed in Mean±SEM. The significance of in vivo data was analyzed by One way anova followed by Dunnet test. P<0.05 was considered as statistically significant

TNF-Alpha = assay: Serum TNF-Alpha levels in carrageenan paw edema rats; assay type: in vivo, Rat; conditions: for TNF-Alpha: rat serum after paw volume measurement, Mean±SEM; for Serum TNF-Alpha compared with positive control (G2) / Percentage inhibition over control (serum TNF-Alpha): rat serum; for Serum TNF-Alpha compared with positive control (G2): result in words; for Percentage inhibition over control (serum TNF-Alpha): vs positive control
Description: as §1

HepG2 cell line = assay: In vitro cytotoxicity (MTT) against HepG2 cell line; assay type: cell-based, Human; conditions: 72 h
Description: In-vitro cytotoxicity of the nutrients, G3, G4 and G5 were tested against HepG2 cell line. Nutrients were taken at concentrations ranging from 1000 μg/ml to 62.5 μg/ml to determine the percentage growth inhibition of individual substance on HepG2 cell line. The samples G3 and G4 produced a CTC50 value of above 1000 μg/ml. […] [Journal of Immunological Methods, 1986; 89:271-277].
The in vitro cytotoxicity was performed for samples G3, G4 and G5 on HepG2 to find toxic concentration and to determine the apoptotic activity of G3, G4 and G5.
(§2) For cytotoxicity studies, 10 mg of test substance was separately dissolved and volume was made up with MEM supplemented with 2% inactivated FBS to obtain a stock solution of 1 mg/ml concentration and sterilized by 0.22μ syringe filtration. Serial two fold dilutions were prepared from this for carrying out cytotoxic studies.
(§3) HepG2 (Human Hepatocyte) cell line was procured from National Centre for Cell Sciences (NCCS), Pune, India. Stock cells were cultured in MEM supplemented with 10% inactivated Fetal Bovine Serum (FBS), penicillin (100 IU/ml), streptomycin (100 μg/ml) and amphotericin B (5 μg/ml) in an humidified atmosphere of 5% CO2 at 7° C. until confluent. The cells were dissociated with TPVG solution (0.2% trypsin, 0.02% EDTA, 0.05% glucose in PBS). The stock cultures were grown in 25 cm^2 culture flasks and all experiments were carried out in 96 microtitre plates (Tarsons India Pvt. Ltd., Kolkata, India).
The monolayer cell culture was trypsinized and the cell count was adjusted to 100,000 cells/ml using DMEM-HG containing 10% FBS. To each well of the 96 well microtitre plate, 0.1 ml of the diluted cell suspension was added. After 24 h, when a partial monolayer was formed, the supernatant was flicked off, washed the monolayer once with medium and 100 μl of different test concentrations of test substances were added on to the partial monolayer in microtitre plates. The plates were then incubated at 37° C. for 3 days in 5% CO2 atmosphere, and microscopic examination was carried out and observations were noted every 24 h interval. After 72 h, the substance solutions in the wells were discarded and 50 μl of MTT in PBS was added to each well. The plates were gently shaken and incubated for 3 h at 37° C. in 5% CO2 atmosphere. The supernatant was removed and 100 μl of propanol was added and the plates were gently shaken to solubilize the formed formazan. The absorbance was measured using a microplate reader at a wavelength of 540 nm. The percentage growth inhibition was calculated using the standard formula and concentration of test substance needed to inhibit cell growth by 50% (CTC50) values is generated from the dose-response curves for each cell line.
as §2, with “substance powder” for “substance”, “with DMEM” for “with MEM”, “of 10” for “of 1”
as §3, with “DMEM” for “MEM”, “37°” for “7°”, “cm2” for “cm^2”
The monolayer cell culture was trypsinized and the cell count was adjusted to 100,000 cells/ml using medium containing 10% FBS. To each well of the 96 well microtitre plate, 0.1 ml of the diluted cell suspension was added. […]

Nrf2 = assay: In vitro gene expression of Nrf2 (RT-PCR) in HepG2; assay type: cell-based, Human; conditions: HepG2, 250 μg/ml; cell control 1.00
Description: Nrf2 were estimated for the test substance by gene expression method, where the level of expression of Nrf2 expression on Human Hepatocytes (HepG2) was determined with respect to untreated HepG2 cells. The HepG2 cells treated with drug were subjected to cell lysis by treating with Tri-extract reagent. Chloroform was added, to isolate the total RNA from the sample and subjected for centrifugation. […] After the incubation followed by centrifugation, appropriate volume of ethanol was added to resuspend the pellet. After incubation and centrifugation, the pellet was air dried and appropriate volume of TAE buffer was added. […] The cDNA thus synthesized was taken up for Polymerase chain reaction (PCR) for the amplification of Nrf2 and Glyceraldehyde 3-phosphate dehydrogenase GAPDH (internal control). The mRNA expression levels of Nrf2 were determined using semi-quantitative reverse transcriptase-polymerase chain reaction (RT-PCR). 50 μl of the reaction mixture was subjected to PCR for amplification of Nrf2. cDNAs using specifically designed primers procured from Eurofins, India and as an internal control GAPDH (House keeping gene) was co-amplified with each reaction. Nrf2: 95° C. for 5 min followed by 35 cycles of denaturation at 95° C. for 30 seconds, annealing Tm for 30 seconds and extension at 72° C. for 45 seconds. This was followed by final extension at 72° C. for 10 min.

| Molecule | % inhibition of paw edema at 6th hr. [1] | paw edema compared with Positive control group (G2) [1] | IL-6 (IL-6) | Serum interleukin-6 compared with positive control (G2) (IL-6) | Percentage inhibition over control (serum IL-6) (IL-6) | TNF-Alpha (TNF-Alpha) | Serum TNF-Alpha compared with positive control (G2) (TNF-Alpha) | Percentage inhibition over control (serum TNF-Alpha) (TNF-Alpha) | DNA fragmentation (HepG2 cells; HepG2, 250 μg/ml, 24 hrs) | Regulation in Terms of Folds (gene expression level of Nrf2 normalized to GAPDH) (Nrf2) | other results |
| --- | --- | --- | --- | --- | --- | --- | --- | --- | --- | --- | --- |
| CC(C)(N=NC(C)(C)C(=N)N)C(=N)N.Cl.Cl [AAPH, 2,2′-azobis(2-amidinopropane)dihydrochloride, reference compound] | – | – | – | – | – | – | – | – | – | – | DNA fragmentation (HepG2 cells; HepG2, AAPH (1 mM)): showed a smear in the gel indicating the DNA fragmentation |
| C[N+](C)(C)[C@@H](Cc1c[nH]c(=S)[nH]1)C(=O)[O-] [L-Ergothioneine] | 35.08% | significant decreases paw edema | 85.25 ± 0.30 pg/mL | significantly decreased | 15.74% | 201.5 ± 1.96 pg/mL | significantly decreased | 13.21% | did not exhibit any fragmentation of DNA | >1.0 Folds | inhibition at 62.5 µg/mL (HepG2 cell line; Homo sapiens, Test Conc. 62.5 μg/ml): 6.62 ± 0.88%; inhibition at 125 µg/mL (HepG2 cell line; Homo sapiens, Test Conc. 125 μg/ml): 11 ± 1.31%; inhibition at 250 µg/mL (HepG2 cell line; Homo sapiens, Test Conc. 250 μg/ml): 19 ± 1.05%; inhibition at 1000 µg/mL (HepG2 cell line; Homo sapiens, Test Conc. 1000 μg/ml): 30 ± 1.52%; IC50 (HepG2 cell line; Homo sapiens, concentration needed to inhibit cell growth by 50%, read-out: CTC 50 in μg/ml): > 1000 µg/mL |
| Nicotinamide mononucleotide chloride | 40.80% | significant decreases paw edema | 79.55 ± 0.95 pg/mL | significantly decreased | 21.34% | 185.2 ± 4.37 pg/mL | significantly decreased | 20.18% | did not exhibit any fragmentation of DNA | >1.0 Folds | % Inhibition (HepG2 cell line; Test Conc. 62.5 μg/ml): 5.26 ± 1.5%; % Inhibition (HepG2 cell line; Test Conc. 125 μg/ml): 11.15 ± 3.32%; % Inhibition (HepG2 cell line; Test Conc. 250 μg/ml): 17.56 ± 1.16%; % Inhibition (HepG2 cell line; Test Conc. 500 μg/ml): 24.19 ± 1.59%; % Inhibition (HepG2 cell line; Test Conc. 1000 μg/ml): 31.49 ± 0.79% |
